The values that follow come from US20020127281A1, “Stabilized hyrogen peroxide solutions” (priority 2000, published 2002).

A short description of this data set: stabilization of peroxy compounds by the present stabilizer system. The class given is physicochemical. An excerpt: Trace amounts of peroxy compounds stabilized with a hydrogen peroxide stabilizer, especially diethylene triamine penta(methylene phosphonic acid) or 1-hydroxyethylidene-1,1-diphosphonic acid may be utilized as a preservative for drugs, eyewashes, or other solutions containing an active ingredient designed to be used in the ocular environment. The preservative according to the present invention may be used in the ocular environment. Furthermore, the preservative according to the present invention may be used in any ophthalmic solution as long as the active ingredient in that solution is compatible with trace amounts of the peroxy compounds. Also, virtually any peroxy compound may be used so long as it is hydrolyzed in water to produce hydrogen peroxide. Examples of such sources of hydrogen peroxide, which provide an effective resultant amount of hydrogen peroxide, include sodium perborate decahydrate, sodium peroxide and urea peroxide. […] Hydrogen peroxide concentrations from about 2 ppm to about 1000 ppm are useful in the present invention. Therefore, peroxy compounds that generate hydrogen peroxide from about 2 ppm to about 1000 ppm are useful in the present invention. More preferably, the concentration of hydrogen peroxide from is about 10 ppm to about 1000 ppm.

Take `CC(=O)OO` [peracetic acid]: the “stabilization by the present system” value is “cannot be stabilized”.
